Data taken from patent US7994202B2, “Bicyclic nitrogen-containing heterocyclic compounds” (Asahi Kasei Pharma Corporation, priority 2008, dated 2011).

target: T1, human EP1 receptor (Homo sapiens, UniProt P34995); assay: Receptor binding test using cells expressing human EP1 receptor ([3H]PGE2 binding inhibition, membrane fraction); settings: membrane fraction of HEK293 cells expressing human EP1 receptor, [3H]PGE2 1 nM; read-out: Ki value in the measurement of [3H]PGE2 binding inhibitory activity
T1 construct: expressed in transfected cells
T1 sequence (P34995 1-402): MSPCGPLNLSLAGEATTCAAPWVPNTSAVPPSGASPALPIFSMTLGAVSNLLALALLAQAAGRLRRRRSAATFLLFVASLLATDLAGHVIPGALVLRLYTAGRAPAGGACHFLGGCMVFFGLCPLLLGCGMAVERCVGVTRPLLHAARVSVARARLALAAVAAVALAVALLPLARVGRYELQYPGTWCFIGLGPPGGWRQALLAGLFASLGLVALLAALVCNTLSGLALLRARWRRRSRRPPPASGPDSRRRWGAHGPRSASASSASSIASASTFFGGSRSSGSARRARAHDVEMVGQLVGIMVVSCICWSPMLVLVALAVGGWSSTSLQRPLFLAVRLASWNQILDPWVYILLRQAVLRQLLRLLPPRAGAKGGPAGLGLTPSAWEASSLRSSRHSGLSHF
Experimental: Receptor Binding Test Using Cells Expressing Human EP1 Receptor
Inhibitory activity of the test compounds on binding of [^3H]PGE2 in HEK293 cells stably expressing human EP1 receptor was measured.
HEK293 cells, which stably express human EP1 receptor, were established by using the gene for human EP1 receptor, and then a membrane fraction was prepared therefrom. Thus-prepared membrane fraction was incubated at 30° C. for 90 minutes with a reaction solution (200 μL/well) which includes the test compound and [^3H]PGE2. Upon the completion of the reaction, the reaction solution was aspirated off under reduced pressure, and the [^3H]PGE2 bound to the membrane fraction was trapped by using Unifilter Plateg CF/C (manufactured by Packard) and the bound radioactivity was counted with a liquid scintillator.
Kd value was obtained from a Scatchard plot. Non-specific binding was obtained from the binding in the presence of an excess amount (10 μM) of non-labeled PGE2. For the measurement of an inhibitory activity of the test compound on [^3H]PGE2 binding, [^3H]PGE2 (1 nM) and various concentrations of the test compound were added. Meanwhile, for all of the reactions, the buffer as described below was used.
Buffer; 10 mM MES/NaOH (pH 6.0), 10 mM MgCl2, 1 mM EDTA, 0.1% BSA
Dissociation constant of the compounds, i.e., Ki, was obtained according to the following equation. […]

Compound	Ki [nM]
O=C(O)c1csc(-n2nc(C3=CCCCO3)c3ccc(C(F)(F)F)cc32)n1 [Exp.105]	≤ 100
O=C(O)c1csc(-n2nc(-c3ccccc3)c3ccc(C(F)(F)F)nc32)n1 [Exp.106]	≤ 100

target: T1, human EP1 receptor; assay: Antagonist activity using cells expressing human EP1 receptor (SRE-luciferase reporter activity, PGE2 10 nM); type: cell-based; settings: HEK293 cells stably expressing human EP1 receptor, 6 hours, read-out: IC50 value in the measurement of antagonist activity using human EP1 receptor expressing cells
From the text: (§1) Measurement of an Antagonist Activity by Using Cells Expressing Human EP1 Receptor
As a result of searching Refseq Database for prostaglandin E receptor, genetic information of human EP1 (NM_000955) receptor was obtained. Based on this sequence information, human EP1 receptor gene was cloned by PCR using human cDNA as a template and by an ordinary method to give human EP1 receptor. Then, HEK293 in which the receptor is stably expressed was established, together with a reporter gene (SRE-Luciferase) in which serum responsible element (SRE) is added at the upstream region of firefly luciferase gene. The resulting cells were seeded to a 96 well plate (5×10^4 cells/well) and cultured for one day. To the plate, PGE2 (200 nM, final concentration 10 nM) and the test compound (in an amount of 1/20, 20× of the final concentration) were added to initiate the reaction. After allowing the reaction to proceed at 37° C. for 6 hours, the medium was aspirated off, added with a luminescent agent and the reporter activity was measured. […]

Compound	IC50 [nM]
O=C(O)c1csc(Cn2nc(-c3ccccc3)c3ccccc32)n1 [Exp.7, 2-{(3-phenyl-1H-indazol-1-yl)methyl}thiazole-4-carboxylic acid]	20 to 100
Cc1ccccc1-c1nn(-c2nc(C(=O)O)cs2)c2ccccc12 [Exp.9]	≤ 20
O=C(O)c1csc(-n2nc(-c3cccc(O)c3)c3ccccc32)n1 [Exp.16]	20 to 100
O=C(O)c1ccc(-n2nc(-c3ccccc3)c3ccccc32)s1 [Exp.94]	100 to 500
O=C(O)c1csc(-n2nc(-c3ccccc3)c3c2CC(C(F)(F)F)CC3)n1 (stereo not drawn) [Exp.102]	≤ 20
O=C(O)c1csc(Cn2nc(-c3ccccc3)c3ccc(C(F)(F)F)cc32)n1 [Exp.104]	≤ 20
O=C(O)c1csc(-n2nc(C3=CCCCO3)c3ccc(C(F)(F)F)cc32)n1 [Exp.105]	≤ 20
O=C(O)c1csc(-n2nc(-c3ccccc3)c3ccc(C(F)(F)F)nc32)n1 [Exp.106]	≤ 20
C=Cc1ccc2c(-c3ccccc3)nn(-c3nc(C(=O)OCC)cs3)c2c1 [Exp.116, Ethyl 2-(3-phenyl-6-vinyl-1H-indazol-1-yl)thiazole-4-carboxylate]	20 to 100
O=C(O)c1ccc2c(-c3ccccc3)nn(-c3nc(C(=O)O)cs3)c2c1 [Exp.119, 2-(6-Carboxy-3-phenyl-1H-indazol-1-yl)thiazole-4-carboxylic acid]	≤ 20
CC(=O)Nc1ccc2c(-c3ccccc3)nn(-c3nc(C(=O)O)cs3)c2c1 [Exp.122]	100 to 500
CN(C)c1ccc2c(-c3ccccc3)nn(-c3nc(C(=O)O)cs3)c2c1 [Exp.154]	≤ 20
O=C(O)c1csc(-n2nc(-c3ccccc3)c3ncc(C(F)(F)F)cc32)n1 [Exp.164]	≤ 20
O=C(O)c1csc(-n2nc(-c3ccccc3)c3ccc(Sc4ccc(OC(F)(F)F)cc4)nc32)n1 [Exp.177]	100 to 500
O=C(O)c1csc(-n2nc(-c3ccccc3)c3ccc(Sc4cccc(C(F)(F)F)c4)nc32)n1 [Exp.179]	20 to 100
O=C(O)c1csc(-n2nc(-c3cccs3)c3ccccc32)n1 [Exp. 51]	20 to 100
N#Cc1ccc2c(-c3ccccc3)nn(-c3nc(C(=O)O)cs3)c2c1 [Exp. 118, 2-(6-Cyano-3-phenyl-1H-indazol-1-yl)thiazole-4-carboxylic acid]	20 to 100
Cn1cncc1C(=O)Nc1ccc2c(-c3ccccc3)nn(-c3nc(C(=O)O)cs3)c2c1 [Exp. 130]	100 to 500
O=C(O)c1csc(-n2nc(-c3ccccc3)c3ccc(NC(=O)C4CCCC4)cc32)n1 [Exp. 131]	100 to 500
O=C(O)c1csc(-n2nc(-c3ccccc3)c3ccc(NC(=O)C45CC6CC(CC(C6)C4)C5)cc32)n1 [Exp. 133]	100 to 500
O=C(O)c1csc(-n2nc(-c3ccccc3)c3ccc(NC(=O)C4CC4)cc32)n1 [Exp. 135]	100 to 500
CC(C)S(=O)(=O)Nc1ccc2c(-c3ccccc3)nn(-c3nc(C(=O)O)cs3)c2c1 [Exp. 141]	100 to 500

Compound	IC50 [nM]
CCC(C)S(=O)(=O)Nc1ccc2c(-c3ccccc3)nn(-c3nc(C(=O)O)cs3)c2c1 (stereo not drawn) [Exp. 142]	100 to 500
O=C(O)c1csc(-n2nc(-c3ccccc3)c3ccc(NCc4ccccc4F)cc32)n1 [Exp. 145]	100 to 500
O=C(O)c1csc(-n2nc(-c3ccccc3)c3ccc(NCc4cccc(F)c4)cc32)n1 [Exp. 146]	100 to 500
O=C(O)c1csc(-n2nc(-c3ccccc3)c3ccc(NCc4ccc(F)cc4)cc32)n1 [Exp. 147]	100 to 500
O=C(O)c1csc(-n2nc(-c3ccccc3)c3ccc(NCc4ccccn4)cc32)n1 [Exp. 148]	20 to 100
O=C(O)c1csc(-n2nc(-c3ccccc3)c3ccc(NCc4cccnc4)cc32)n1 [Exp. 149]	100 to 500
O=C(O)c1csc(-n2nc(-c3ccccc3)c3ccc(NCC4CCOC4)cc32)n1 (stereo not drawn) [Exp. 150]	100 to 500
CCC(C)CNc1ccc2c(-c3ccccc3)nn(-c3nc(C(=O)O)cs3)c2c1 (stereo not drawn) [Exp. 151]	100 to 500
O=C(O)c1csc(-n2nc(-c3ccccc3)c3ccc(NCCc4ccccc4)cc32)n1 [Exp. 152]	20 to 100
O=C(O)c1csc(-n2nc(-c3ccccc3)c3ccc(Cl)cc32)n1 [Exp. 156]	≤ 20
O=C(O)c1csc(-n2nc(-c3ccccc3)c3ccc(Br)cc32)n1 [Exp. 157]	≤ 20
O=C(O)c1csc(-n2nc(-c3ccccc3)c3ccc(I)cc32)n1 [Exp. 158]	≤ 20
C/C=C/c1ccc2c(-c3ccccc3)nn(-c3nc(C(=O)O)cs3)c2c1 [Exp. 159]	≤ 20
C/C=C\c1ccc2c(-c3ccccc3)nn(-c3nc(C(=O)O)cs3)c2c1 [Exp. 160]	≤ 20
C=Cc1ccc2c(-c3ccccc3)nn(-c3nc(C(=O)O)cs3)c2c1 [Exp. 162]	≤ 20
CCSc1ccc2c(-c3ccccc3)nn(-c3nc(C(=O)O)cs3)c2n1 [Exp. 165]	100 to 500
CC(C)C(C)Sc1ccc2c(-c3ccccc3)nn(-c3nc(C(=O)O)cs3)c2n1 (stereo not drawn) [Exp. 166]	100 to 500
O=C(O)c1csc(-n2nc(-c3ccccc3)c3ccc(N4CCC4)nc32)n1 [Exp. 167]	20 to 100
O=C(O)c1csc(-n2nc(-c3ccccc3)c3ccc(Sc4ccccc4F)nc32)n1 [Exp. 175]	20 to 100
O=C(O)c1csc(-n2nc(-c3ccccc3)c3ccc(SCc4ccccc4)nc32)n1 [Exp. 176]	100 to 500
O=C(O)c1csc(-n2nc(-c3ccccc3)c3ccc(Sc4cccc(O)c4)nc32)n1 [Exp. 178]	20 to 100

target: T1, human EP1 receptor; assay: Antagonist activity using cells expressing human EP1 receptor (intracellular Ca2+ assay, Fura 2-AM); type: cell-based; settings: HEK293 cells stably expressing human EP1 receptor, PGE2 10 nM
Experimental: as §1
Cells expressing human EP1 receptor were suspended in an assay buffer to the concentration of 5×10^6 cells/ml, added with Puronic F-127 (final concentration 0.2%), and Fura 2-AM (final concentration 5 uM), followed by incubation at 37° C. for 30 minutes. After washing twice with the assay buffer, the cells were again suspended in the assay buffer to 1×10^6 cells/60 ul, and then transferred to a 96 well UV plate (1×10^6 cells/60 ul/well). Thereafter, by using a fluorescent chemical screening system (FDSS4000, Hamamatsu Photonics K.K.), intracellular Ca^2+ concentration was measured after adding 20 ul of each of the test compounds and PGE2 (5× of the final concentration for both). Ca^2+ concentration was measured by determining fluorescence intensity after irradiation with two excitation wavelengths, i.e., 340 and 380 nm.
Furthermore, EP1 antagonist activity was calculated as a ratio (%) of inhibiting increase in intracellular Ca^2+ concentration by PGE2 (10 nM).
Assay buffer: 20 mM HEPES/KOH (pH 7.4), 115 mM NaCl, 5.4 mM KCl, 0.8 mM MgCl2, 0.8 mM CaCl2, 13.8 mM D-glucose, 0.1% BSA

Compound	IC50 [nM]
Cc1ccccc1-c1nn(-c2nc(C(=O)O)cs2)c2ccccc12 [Exp.9]	100 to 300
O=C(O)c1csc(-n2nc(-c3cccc(O)c3)c3ccccc32)n1 [Exp.16]	100 to 300
O=C(O)c1csc(-n2nc(C3=CCCCO3)c3ccc(C(F)(F)F)cc32)n1 [Exp.105]	≤ 100
O=C(O)c1csc(-n2nc(-c3ccccc3)c3ccc(C(F)(F)F)nc32)n1 [Exp.106]	≤ 100

tested on: SD rats; assay: Action of extending interval of micturition in rat in wakefulness II (0.3% acetic acid-induced cystitis); type: in vivo; settings: male SD rats in wakefulness, 0.3% acetic acid cystitis, intravenous
From the text: SD rats (Charles River Laboratories Japan, Inc., male) were employed as experimental animals. Each rat was put under anesthesia by inhalation of 2% isoflurane (laughing gas:oxygen=7:3), and then was fixed in the supine position. Anesthesia was maintained by the inhalation of 2% isoflurane. The abdominal part was incised along the midline, and the urinary bladder was exposed from the intraperitoneal cavity. The vertex vesicae part was subjected to a small incision, and a polyethylene tube (PE-50: Becton Dickinson and Company) was inserted into the bladder and fixed. […] Thereafter, while physiological saline warmed to 37° C. was injected to the other end of the tube inserted into the bladder through one branch of a three-way stopcock at a rate of 3.0 mL/hr, the internal pressure of the bladder was continuously recorded from another branch using a pressure amplifier through a pressure transducer. The excreted urine was cumulatively accumulated in a vessel on a digital balance, and the weight change was simultaneously measured. […] The value obtained before the administration was taken from an average value of the values measured for 30 minutes before the administration, and the value obtained after the administration was taken from an average value of the values measured for 60 minutes immediately after the administration. […]

Compound	amount of micturition
O=C(O)c1csc(-n2nc(-c3ccccc3)c3ccc(C(F)(F)F)cc32)n1 [Exp.77]	increase in the amount of micturition

same assay, conditions: male SD rats in wakefulness, 0.3% acetic acid cystitis, intravenous, 60 minutes after administration

Compound	micturition interval extension [%]
O=C(O)c1csc(-n2nc(-c3ccccc3)c3ccc(C(F)(F)F)cc32)n1 [Exp.77]	≥ 30
